The nature of this data set: Brookfield viscosity of acyl lactylates alone and 1:1 with glycols. The class given is physicochemical. As to conditions: Brookfield 95, 5 RPM, 25° C.; acyl lactylate alone. The source says: An advantage of compositions including an acyl lactylate and a glycol is the reduction of viscosity that is present in acyl lactylates, which is rather high and increases difficulty in processing. […] Of course, it is expected that a lowering of viscosity of the acyl lactylates would be realized in ratios of acyl lactylates:glycols other than 1:1 as well.

Regarding `CCCCCCCCCCCC(=O)OC(C)C(=O)OC(C)C(=O)[O-].[Na+]` (stereo not drawn) [Sodium Lauroyl Lactylate], the Viscosity is recorded as 1,520,000 cP.
Consider Sodium Caproyl/Lauroyl Lactylate, for which the Viscosity is on record as 1,192,000 cP.
Regarding Sodium Isostearoyl Lactylate, the Viscosity was 1,080,000 cP.

The values are drawn from US11655994B2, “Antimicrobial composition including an acyl lactylate and a glycol and methods of inhibiting microbial growth utilizing the same” (Kimberly-Clark Worldwide, Inc., priority 2017, dated 2023).
